pIC50: −log10 of the molar value.
Tested on: Mycobacterium tuberculosis
Assay: Antimicrobial activity in INH-resistant Mycobacterium tuberculosis ATCC 35822 infected in human Primary macrophage cells assessed as reduction in intracellular growth of bacteria incubated for 4 days by CFU assay
Format: functional, organism-based
Conditions: ATCC 35822, Primary macrophage, 96 h

C=CC[C@@]12C[C@H](CC=C(C)C)C(C)(C)[C@@](CC=C)(C(=O)C(C(C)=O)=C1[O-])C2=O.[Na+]
pIC50: 4.80
